From patent US11578092B2, “Compound for preventing or treating neurodegenerative disease and application thereof” (Shanghai Pharmaceuticals Holding Co., Ltd., priority 2018, dated 2023)

What was measured:
[1] = tested on: APP/PS1 transgenic male mice (AD mice); test: Morris water maze test in AD mice; type: in vivo; details: 50 mg/kg daily intragastric, 90 days; for learning and memory abilities of AD mice after administration: Morris water maze
Procedure: Twenty 5-6-month-old APP/PS1 transgenic male mice (AD mice) were selected and divided into a model group and a polysaccharide administration group according to the random number table method. PL402 was administered daily by intragastric administration (50 mg/kg), and 10 non-transgenic mice were used in a negative control group (without administration). After 90 days of consecutive administration, Morris water maze behavior test was used to detect the effect of PL402 on the learning and cognitive functions of APP/PS1 mice.
In this experiment, a classic Morris water maze test procedure was used, which includes a place navigation test and a space exploration test. The duration of the experiment was 7 days in total, and the space exploration test was introduced at Days 4 and 7.
The selection of animals and the “Morris water maze experiment” was performed as described in Example 3, to detect the effect of PL404 on the animal learning and memory abilities.

mouse BV-2 cells = test: Expression of inflammatory factors in LPS-stimulated BV-2 cells (QPCR); type: cell-based; details: LPS 300 ng/ml, compound 10-300 μM, 24 hours
Procedure: Neuroinflammation in the brain of AD is one of the causes of cognitive decline. Microglia are key cells that mediate neuroinflammation. The inventors studied whether PL402 is effective in inhibiting neuroinflammation by detecting the expression of inflammatory factors on mouse BV-2 cells.
BV-2 cells culture and stimulation: BV-2 cells were cultured in DMEM, plated in a 24-well plate and cultured for 24 hours. Then PL402 (0, 10, 30, 100, or 300 μM) and LPS (300 ng/ml) were added, and then incubated for 24 hours. RNA was extracted with Trizol, and the expression of related inflammatory factors was detected by QPCR.

[2] = tested on: neuroblastoma cells SK—N—SH cells; test: Total Aβ level in supernatant of SK-N-SH cells (ELISA); type: cell-based; details: 24 hours
Procedure: Aβ is the main pathogenic protein of AD. The inventors investigated whether PL402 has an effect on inhibiting Aβ production by detecting the level of Aβ in neuroblastoma cells SK—N—SH cells (which can secrete Aβ).
Culture of SK—N—SH and detection of Aβ: SK—N—SH cells were cultured in DMEM, plated in a 24-well plate and cultured for 24 hours. PL402 (0, 10, 30, 100, or 300 μM) was added, and then incubated for 24 hours. The supernatant was collected and the total Aβ protein level was detected by ELISA.

[3] = tested on: human neural progenitor cell (differentiated by humanized iPSC); test: EdU incorporation, proliferation of human neural progenitor cells; type: cell-based; details: dosage 0, 1, 3, 10, 30 or 100 μM, vs untreated control
Procedure: The inventors investigated whether PL404 has the effect on promoting proliferation by detecting the EdU incorporation of a human neural progenitor cell (differentiated by humanized iPSC). The dosage of PL404 was 0, 1, 3, 10, 30, or 100 μM.
The method similar to that in Example 7 was used, except that compound PL404 was replaced by PL405, and by detecting the EdU incorporation of human neural progenitor cells, whether PL405 has the effect on promoting proliferation was investigated.

SMILES | learning and memory abilities of AD mice after administration [1] | escape latency (latency to reach the platform) compared with the model group ([1]; place navigation test, 50 mg/kg) | expression of inflammatory factor IL-1β (mouse BV-2 cells) | expression of inflammatory factor IL-6 (mouse BV-2 cells) | production of Aβ (total Aβ protein level) ([2]; compound 10-300 μM, ELISA of supernatant) | concentration at which the inhibition of Aβ production is most desirable ([2]; tested 0, 10, 30, 100, 300 μM) [µM] | increase of human neural progenitor cell proliferation level compared with the control group [3]
COc1cc(/C=C/C(=O)O[C@@H]2OC(C)[C@H](O[C@@H]3OC(C)[C@H](O)C(O)C3O)C(O)C2O)ccc1O (stereo partly drawn) [PL402] | significantly improved | statistically significant decrease | significantly inhibit | significantly inhibit | significantly inhibit | 100 | –
COc1cc(/C=C/C(=O)OC2C(C)OC(OC3C(C)OC(O)C4OC(C)(C)OC34)C(O)C2O)ccc1O (stereo not drawn) [PL404] | significantly improved | – | – | – | – | – | about 30%
COc1cc(/C=C/C(=O)OC2C(C)OC(OC3C(C)OC(O)C(O)C3O)C(O)C2O)ccc1O (stereo not drawn) [PL405] | – | – | – | – | – | – | about 60%
